Experimental data taken from patent US6743811B2, “Oxazalidinone compounds and methods of preparation and use thereof” (Pharmacia & Upjohn Company, priority 1999, dated 2004).

Tested on: Staphylococcus aureus
Test: MIC by microdilution method (NCCLS), S. aureus
Type: cell-based
Description: Exemplary compounds of formula 1 are as follows. MIC refers to the minimal inhibitory concentration which was determined as described in Example 37.
Minimum inhibitor concentrations (MICs) were determined using the microdilution method according to National Committee for Clinical Laboratory Standards (NCCLS) procedures. Compounds were suspended in DMSO at 10 mg/ml and stored at −20° C. The range of concentrations tested was 64-0.06 μg/ml using two-fold dilutions.
To prepare the inoculum, bacterial cultures were grown overnight at 35° C. on agar plates and each organism was resuspended in 1 ml saline to obtain a 0.5 McFarlands density standard. This was subsequently diluted 1:200 into Mueller-Hinton Broth (MHB) or Haemophilus Test Medium (HTM; for Haemophilus) providing a final inoculum size of 5*10^5 cfu/ml. After inoculation with the bacteria, assay plates were incubated at 35° C. for 18-24 h. […] Gram positive and gram negative strains used included Staphylococcus aureus, Enterococcus faecium, Enterococcus faecalis, Streptococcus pneumoniae, Haemophilus influenzae, Pseudomonas aeruginosa, Escherichia coli, and E. coli (acr)—an efflux pump mutant.

| Structure (SMILES) | MIC (minimal inhibitory concentration) |
| --- | --- |
| CC(=S)NC[C@H]1CN(c2ccc(N(C)S(C)(=O)=O)c(F)c2)C(=O)O1 | 4-8 Tg/mL |
| CSc1ccc(N2C[C@H](CNC(C)=S)OC2=O)cc1F [drawing 18] | 4-8 Tg/mL |

Tested on: not given
Test: not given

| Structure (SMILES) | melting point [°C] |
| --- | --- |
| CC(=S)NC[C@H]1CN(c2ccc(S(C)(=O)=O)c(F)c2)C(=O)O1 | 177 |
| CC(=S)NC[C@H]1CN(c2ccc(N)c(F)c2)C(=O)O1 | 137 to 188 |
| CC(=S)NC[C@H]1CN(c2ccc(N(C)C=S)c(F)c2)C(=O)O1 | 103 to 104 |
| CC(=O)Nc1ccc(N2C[C@H](CNC(C)=S)OC2=O)cc1F | 200 to 201 |
| CNC(=O)c1ccc(N2C[C@H](CNC(C)=S)OC2=O)cc1F | 176 to 177 |
| CC(=S)NC[C@H]1CN(c2ccc(NC(=O)c3ccc([N+](=O)[O-])o3)c(F)c2)C(=O)O1 | 188 |
| CC(=S)NC[C@H]1CN(c2ccc(SCCCl)c(F)c2)C(=O)O1 | 134 to 135 |
| CC(=S)NC[C@H]1CN(c2ccc(C(=O)Oc3c(F)c(F)c(F)c(F)c3F)c(F)c2)C(=O)O1 | 163 to 164 |
| CC(=S)NC[C@H]1CN(c2ccc(C3=NOCCO3)c(F)c2)C(=O)O1 | 166 to 167 |
| COC(=O)c1ccc(N2C[C@H](CNC(C)=S)OC2=O)cc1F | 152 to 154 |
| CC(=S)NC[C@H]1CN(c2ccc([S+](C)[O-])c(F)c2)C(=O)O1 (stereo partly drawn) | 158 to 160 |
| CC(=O)NC[C@H]1CN(c2ccc(NC(=O)c3csnn3)c(F)c2)C(=O)O1 | 233 |
| CC(=S)NC[C@H]1CN(c2ccc(C(=O)O)c(F)c2)C(=O)O1 | 180 to 182 |
| CC(=S)NC[C@H]1CN(c2ccc(NC(=O)c3csnn3)c(F)c2)C(=O)O1 | 203 to 204 |
| CC(=S)NC[C@H]1CN(c2ccc(C(=O)NN)c(F)c2)C(=O)O1 | 177 |
| CC(=S)NC[C@H]1CN(c2ccc([S+]([O-])CCF)c(F)c2)C(=O)O1 (stereo partly drawn) | 161 |
| CC[S+]([O-])c1ccc(N2C[C@H](CNC(C)=S)OC2=O)cc1F (stereo partly drawn) | 138 to 139 |
| CSc1ccc(N2C[C@H](CNC(C)=S)OC2=O)cc1F | 130 to 131 |
| CC(=S)NC[C@H]1CN(c2ccc(Sc3ncc([N+](=O)[O-])s3)c(F)c2)C(=O)O1 | 116 to 117 |
